We go through ten compounds from patent US20250197388A1, “COMPOUNDS, PHARMACEUTICAL COMPOSITIONS AND METHODS FOR TREATING INFLAMMATORY BOWEL DISEASE” (FLAGSHIP PIONEERING INNOVATIONS VI, LLC, priority 2022, published 2025).

The target of one test is T1, Dectin-1b (Homo sapiens, UniProt Q9BXN2).
T1 construct: host or cells: HEK-Blue Dectin-1b reporter cells (HEK293-derived)
T1 sequence (Q9BXN2 1-201 isoform Q9BXN2-2): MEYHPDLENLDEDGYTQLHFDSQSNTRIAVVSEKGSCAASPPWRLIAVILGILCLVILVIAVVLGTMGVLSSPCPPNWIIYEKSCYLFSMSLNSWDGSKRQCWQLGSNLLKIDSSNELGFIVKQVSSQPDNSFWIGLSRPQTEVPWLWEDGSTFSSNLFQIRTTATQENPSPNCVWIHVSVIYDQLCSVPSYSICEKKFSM
Kind of test: Dectin-1 assay, HEK-Blue Dectin-1b SEAP reporter cells stimulated with beta-glucan peptide (BGP). Type of test: cell-based. Conditions: for Activity: HEK-Blue Dectin-1b cells, compounds at 1, 10 or 30 μM for 6 hours, then BGP 30 μg/mL 16-18 hours, SEAP adjusted by cell viability. The method, then: Compounds described herein are added to mammalian cells for bioactivity assessment. The HEK-Blue Dectin-1b cells line (InVivoGen) releases a reporter protein (secreted embryonic alkaline phosphatase, SEAP) to the culture supernatant in response to Dectin-1 activation. HEK-Blue reporter cells were grown in DMEM culture media with 10% decomplemented fetal calf serum (InvivoGen, 1% Pen/Strep antibiotic (InvivoGen), 0.2% Normocin antibiotic (InvivoGen). On the day prior to the assay, cells were seeded in a 96 flat-bottom well plate at 50,000 cells/well and further incubated for 20 hours. On the day of the assay cells were incubated with 1 μM, 10 μM or 30 μM of the compounds described herein or with 1 μM of the SYKi IV Dectin-1b Inhibitor (Millipore) or with DMSO (vehicle control) for 6 hours, followed by the addition of beta-glucan peptide (BGP, a Dectin-1 ligand at 30 μg/mL) and incubation for 16-18 hours. After incubation was concluded, the cultures supernatants were collected and Dectin-1 related activity was assessed by measurement of the SEAP-reporter protein presence, using Quanti-Blue assay (Invivogen) and these values were adjusted by the Cell Viability levels that was assessed using the Cell-Titer-Glo2 Reagent (Promega).
Results represent cell number adjusted SEAP levels in a triplicate setting for each condition and cell numbers and viability corrections reflected less than 5% corrections. See, e.g., FIG. 1 for compound A-3.

Test [1] relates to Zymosan-induced production of IL-12p40 in monocyte-derived dendritic cells. As to the kind of experiment: Monocyte derived DC (MoDC) assay, Zymosan-induced IL-12p40 (Luminex/ELISA). Type of test: cell-based, human. The note with it: MoDC assay. From the text:
(§1) Monocyte derived DC (MoDC) were differentiated from healthy human donor derived CD14+ monocytes. Commercially available freshly prepared Leukopaks were obtained from healthy blood donor and kept refrigerated on ice before spin centrifuged and the pelleted cells are rinsed and resuspended with MACS buffer (Miltenyi Biotec). Next, CD14+ monocytes were purified using MultiMACS™ Cell24 Separator-Plus instrumentation and reagents according to the manufacturer (Miltenyi Biotec) instructions. The resulting purified CD14^+ cell fraction was washed, enumerated, and subsequently cryopreserved for later use. At the experiment first day cryopreserved CD14′ cells were thawed, rinsed with culture media, and then resuspended in culture media principally composed of RPMI (Invitrogen) supplemented with 10% v/v heat inactivated FBS. For generation of MoDC, these CD14^+ cells were enumerated and seeded into 75 cm^2 tissue culture flasks in 30 mL of culture media supplemented with GM-CSF (40-100 ng/mL) and IL-4 (25 ng/mL). Every other day, half of the culture media was replaced with fresh media (containing the same cytokine supplementation) and after 6-7 days of culture, fully differentiated and matured MoDC were obtained as confirmed by conventional Immuno-phenotype markers (levels of expression or absence of surface CD80, CD83, CD86, CD209, HLA-DR, CD14 & CD64) that were verified by flow-cytometry. Fully differentiated (mature) MoDCs, were seeded into 96 flat-well plates and incubated with a various concentration of the compound described herein, or with control solution (DMSO), or with the pharmacologic inhibitors Cyclosporin-A (CsA) and BAY 61-3606 (which is a known inhibitor of Syk kinase) for 6 hours. Next, the MoDC culture well were added with Dectin-1(CLEC7a1)-ligand (Zymosan at 5 μg/mL), or the Toll-like receptor agonist R848, and further incubated for 18-20 hours. After incubation concluded, culture supernatants were collected, and the levels of inflammatory cytokines and chemokines was measured in a triplicate setting for each condition by Luminex® multiplex assay (FIG. 2) or by ELISA (FIG. 3).

The test system of test [2] is LPS-induced IRF reporter activity. Kind of test: IRF assay, THP-1 dual reporter cell line (Lucia luciferase) stimulated with LPS. Type of test: cell-based. The note with it: for inhibition of LPS-induced IRF reporter activity: THP-1 dual reporter cells, LPS 25 ng/mL, compounds at 1 μM or 10 μM. Here is the method:
Compounds described herein are added to mammalian cells for bioactivity assessment. The THP-1 dual reporter cell line (InVivoGen) secretes a reporter protein (Lucia luciferase or LUC) in response to activation by the pro-inflammatory bacterial component lipopolysaccharide (LPS). THP-1 dual reporter cells were grown in RPMI 1640 culture medium with 2 mM L-glutamine, 25 mM HEPES, 10% heat-inactivated fetal bovine serum, 100 µg/ml Normocin antibiotic (InvivoGen), Pen-Strep antibiotic (100 U/ml-100 […], InvivoGen). On the day of the assay, cells were seeded in a 96 flat-bottom well plate at 50,000 cells/well and incubated for 2 hours. Cells were then incubated with 1 μM or 10 μM of the compounds described herein or with 1 μM of KK-16 (Selleck), a potent inhibitor of IκB kinases (IKKs) or with DMSO (vehicle control) for 2 hours, followed by the addition of LPS at 25 ng/mL and incubation for 24 hours. After incubation was concluded, the cultures supernatants were collected and IRF related activity was assessed by measurement of the Lucia luciferase, using Quanti-Luc assay (InvivoGen) and these values were adjusted by the Cell Viability levels that was assessed using the Cell-Titer-Glo2 Reagent (Promega).

Test [3] concerns R848-stimulated monocyte-derived dendritic cells. As to the kind of experiment: MoDC assay, R848-stimulated pro-inflammatory cytokines. The class given is cell-based, human. The note with it: for Gro-α / IL-6 / IL-12p70 / IL-23 / IP-10 / MCP-1 / Mip-1α / TNFα: healthy human donor 14; for inhibition of pro-inflammatory cytokines (overall): healthy human donor 14 (FIGS. 10A-10H).
From the text: as §1

Test [4] has as its system LPS-stimulated monocyte-derived dendritic cells. As to the kind of experiment: MoDC assay, LPS-stimulated pro-inflammatory cytokines. The class given is cell-based, human. The note with it: for inhibition of pro-inflammatory cytokines (overall): healthy human donor 14 (FIGS. 9A-9H).

“Also recorded” adds a separate entry of the source.

The compound `C#CCCC1(CCNC(=O)[C@H]2CS[C@@H]([C@@H]3CSC(c4ccccc4O)=N3)N2C)N=N1` [Compound C-3, (2S,4S)—N-(2-(3-(but-3-yn-1-yl)-3H-diazirin-3-yl)ethyl)-2-((S)-2-(2-hydroxyphenyl)-4,5-dihydrothiazol-4-yl)-3-methylthiazolidine-4-carboxamide] had an Activity on Dectin-1b of under 30 µM.

Turning to `C#CCCC1(CCNC(=O)[C@H]2CS[C@H]([C@@H]3CSC(c4ccccc4O)=N3)N2C)N=N1` [Compound C-2, (4S)—N-[2-(3-but-3-ynyldiazirin-3-yl)ethyl]-2-[(4S)-2-(2-hydroxyphenyl)-4,5-dihydrothiazol-4-yl]-3-methyl-thiazolidine-4-carboxamide], on Dectin-1b, the Activity is under 30 µM.

Consider `C#CCCC1(CCNC(=O)[C@H]2CSC(C3CSC(c4ccccc4O)=N3)N2C)N=N1` (some centres unmarked) [Compound C-1], for which the Activity on Dectin-1b is under 30 µM.

The compound `CN1[C@@H](C(=O)O)CS[C@H]1[C@H]1CSC(c2ccccc2)=N1` (single isomer, unassigned) [Compound F-2] came in with an Activity on Dectin-1b of under 30 µM.

Turning to `CN1C(C2CSC(c3ccccc3O)=N2)SC[C@]1(C)C(=O)O` (stereo partly drawn) [Compound B-1, (4S)-2-(2-(2-hydroxyphenyl)-4,5-dihydrothiazol-4-yl)-3,4-dimethylthiazolidine-4-carboxylic acid], the Activity (in test [1]; on Dectin-1b) was under 30 µM throughout.

As for `C#CCCC1(CCOC(=O)[C@H]2CSC(C3CSC(c4ccccc4O)=N3)N2C)N=N1` (stereo partly drawn) [Compound D-1], the Activity at Dectin-1b is under 30 µM.

On to `CN1C([C@H]2CSC(c3ccccc3O)=N2)SC[C@H]1C(=O)O` (stereo partly drawn) [Compound I-100, (4R)-2-((R)-2-(2-hydroxyphenyl)-4,5-dihydrothiazol-4-yl)-3-methylthiazolidine-4-carboxylic acid], for which the “inhibition of LPS-induced IRF reporter activity” value in test [2] is reported as “shows inhibition of LPS-induced IRF reporter activity”. Moreover, the “statistical significance of inhibition of LPS-induced IRF reporter activity” value in test [2] (tested at 1 and 10 μM (FIG. 8A)) is recorded as “does not meet statistical significance”. Also, in test [3], the Gro-α entry was “statistically significant decrease”, the IL-6 entry is given as “statistically significant decrease”, the IL-12p70 result is recorded as “statistically significant decrease” and the IL-23 result is given as “statistically significant decrease”. In test [3], the IP-10 result was “statistically significant decrease”, the MCP-1 result is on record as “statistically significant decrease”, the Mip-1α entry is on record as “statistically significant decrease” and the TNFα entry is listed as “statistically significant decrease”. Besides, the “inhibition of pro-inflammatory cytokines (overall)” value (shortened to “inhibition … (overall)”) in test [3] is on record as “inhibit several pro-inflammatory cytokines; also recorded: inhibition of pro-inflammatory cytokines”. Also, in test [4] (healthy human donor 14), the Gro-α result is given as “statistically significant decrease”, the IL-6 entry is recorded as “statistically significant decrease”, the IL-12p70 result was “statistically significant decrease” and the IL-23 entry is on record as “statistically significant decrease”. Also, in test [4] (healthy human donor 14), the MCP-1 result is listed as “statistically significant decrease”, the Mip-1α result is on record as “statistically significant decrease” and the TNFα entry was “statistically significant decrease”. Besides, the “inhibition … (overall)” value in test [4] is listed as “inhibit several pro-inflammatory cytokines; also recorded: inhibition of pro-inflammatory cytokines”.

`CN1C(C2CSC(c3ccccc3O)=N2)SC[C@@H]1C(=O)O` (stereo partly drawn) [Compound A-1, (4S)-2-(2-(2-hydroxyphenyl)-4,5-dihydrothiazol-4-yl)-3-methylthiazolidine-4-carboxylic acid] returned an Activity at Dectin-1b of under 30 µM.

Take `CN1C([C@@H]2CSC(c3ccccc3O)=N2)SC[C@@H]1C(=O)O` (stereo partly drawn) [Compound A6, (4S)-2-((S)-2-(2-hydroxyphenyl)-4,5-dihydrothiazol-4-yl)-3-methylthiazolidine-4-carboxylic acid]: the “inhibition of LPS-induced IRF reporter activity” value in test [2] is “shows inhibition of LPS-induced IRF reporter activity”. Besides, the “statistical significance of inhibition of LPS-induced IRF reporter activity” value in test [2] (tested at 1 μM (FIG. 8B)) was “meets statistical significance”. In test [3], the Gro-α entry is on record as “statistically significant decrease”, the IL-6 result was “statistically significant decrease”, the IL-12p70 entry was “statistically significant decrease” and the IL-23 result is reported as “statistically significant decrease”. In test [3], the IP-10 result was “statistically significant decrease”, the MCP-1 entry was “statistically significant decrease”, the Mip-1α entry is reported as “statistically significant decrease” and the TNFα entry is on record as “statistically significant decrease”. The “inhibition … (overall)” value in test [3] is reported as “inhibit several pro-inflammatory cytokines; also recorded: inhibition of pro-inflammatory cytokines”. Besides, in test [4] (healthy human donor 14), the Gro-α entry was “statistically significant decrease”, the IL-6 entry is given as “statistically significant decrease”, the IL-12p70 entry is reported as “statistically significant decrease” and the IL-23 result was “statistically significant decrease”. In addition, in test [4] (healthy human donor 14), the IP-10 entry is given as “statistically significant decrease”, the MCP-1 entry was “statistically significant decrease”, the Mip-1α entry was “statistically significant decrease” and the TNFα entry is given as “statistically significant decrease”. In addition, in test [4], the “inhibition … (overall)” value is reported as “inhibit several pro-inflammatory cytokines; also recorded: inhibition of pro-inflammatory cytokines”. Also, the “inhibition of BGP-induced Dectin-1b reporter gene activity / signaling” value on Dectin-1b (HEK-Dectin-1b cells, range from 1 μM to 30 μM) was “dose-dependent inhibition”. For the same compound, on Dectin-1b (range 1 μM to 30 μM, the maximum concentration tested), the “concentration of maximal inhibition of BGP-induced Dectin-1b activity” value worked out at 30 µM.

As for `C[C@]1(C(=O)O)CSC(C2CSC(c3ccccc3O)=N2)N1` (stereo partly drawn) [Compound E-1, (4S)-2-(2-(2-hydroxyphenyl)-4,5-dihydrothiazol-4-yl)-4-methyl-thiazolidine-4-carboxylic acid], at Dectin-1b, the Activity was under 30 µM.
